24 molecules from patent publication US20090306133A1, “New Acetyl Coenzyme A Carboxylase (ACC) Inhibitors And Uses In Treatments Of Obesity And Diabetes Mellitus - 087” (ASTRAZENECA AB, priority 2007, published 2009) can be followed below.

Each structure is given as a SMILES string. Some results are limits rather than exact numbers.

The target of test [1] is Human recombinant Acetyl-CoA Carboxylase 2 (ACC2) (Homo sapiens, UniProt O00763). Put plainly: Assay Y: ACC2 inhibition, inorganic phosphate (Malachite Green). The class given is biochemical. The following applies: Assay Y: room temperature, 3 hr, 15 min preincubation. The gist of the method: (§1)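 Enzyme preincubated with compound 15 min before substrate addition; reaction run 3 h, then phosphate detected with Malachite Green at 670 nm after 10 min at room temperature. Triplicate 10-point titrations; IC50 by non-linear four-parameter curve fitting.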
Sequence of Human recombinant Acetyl-CoA Carboxylase 2 (ACC2) (O00763 whole entry): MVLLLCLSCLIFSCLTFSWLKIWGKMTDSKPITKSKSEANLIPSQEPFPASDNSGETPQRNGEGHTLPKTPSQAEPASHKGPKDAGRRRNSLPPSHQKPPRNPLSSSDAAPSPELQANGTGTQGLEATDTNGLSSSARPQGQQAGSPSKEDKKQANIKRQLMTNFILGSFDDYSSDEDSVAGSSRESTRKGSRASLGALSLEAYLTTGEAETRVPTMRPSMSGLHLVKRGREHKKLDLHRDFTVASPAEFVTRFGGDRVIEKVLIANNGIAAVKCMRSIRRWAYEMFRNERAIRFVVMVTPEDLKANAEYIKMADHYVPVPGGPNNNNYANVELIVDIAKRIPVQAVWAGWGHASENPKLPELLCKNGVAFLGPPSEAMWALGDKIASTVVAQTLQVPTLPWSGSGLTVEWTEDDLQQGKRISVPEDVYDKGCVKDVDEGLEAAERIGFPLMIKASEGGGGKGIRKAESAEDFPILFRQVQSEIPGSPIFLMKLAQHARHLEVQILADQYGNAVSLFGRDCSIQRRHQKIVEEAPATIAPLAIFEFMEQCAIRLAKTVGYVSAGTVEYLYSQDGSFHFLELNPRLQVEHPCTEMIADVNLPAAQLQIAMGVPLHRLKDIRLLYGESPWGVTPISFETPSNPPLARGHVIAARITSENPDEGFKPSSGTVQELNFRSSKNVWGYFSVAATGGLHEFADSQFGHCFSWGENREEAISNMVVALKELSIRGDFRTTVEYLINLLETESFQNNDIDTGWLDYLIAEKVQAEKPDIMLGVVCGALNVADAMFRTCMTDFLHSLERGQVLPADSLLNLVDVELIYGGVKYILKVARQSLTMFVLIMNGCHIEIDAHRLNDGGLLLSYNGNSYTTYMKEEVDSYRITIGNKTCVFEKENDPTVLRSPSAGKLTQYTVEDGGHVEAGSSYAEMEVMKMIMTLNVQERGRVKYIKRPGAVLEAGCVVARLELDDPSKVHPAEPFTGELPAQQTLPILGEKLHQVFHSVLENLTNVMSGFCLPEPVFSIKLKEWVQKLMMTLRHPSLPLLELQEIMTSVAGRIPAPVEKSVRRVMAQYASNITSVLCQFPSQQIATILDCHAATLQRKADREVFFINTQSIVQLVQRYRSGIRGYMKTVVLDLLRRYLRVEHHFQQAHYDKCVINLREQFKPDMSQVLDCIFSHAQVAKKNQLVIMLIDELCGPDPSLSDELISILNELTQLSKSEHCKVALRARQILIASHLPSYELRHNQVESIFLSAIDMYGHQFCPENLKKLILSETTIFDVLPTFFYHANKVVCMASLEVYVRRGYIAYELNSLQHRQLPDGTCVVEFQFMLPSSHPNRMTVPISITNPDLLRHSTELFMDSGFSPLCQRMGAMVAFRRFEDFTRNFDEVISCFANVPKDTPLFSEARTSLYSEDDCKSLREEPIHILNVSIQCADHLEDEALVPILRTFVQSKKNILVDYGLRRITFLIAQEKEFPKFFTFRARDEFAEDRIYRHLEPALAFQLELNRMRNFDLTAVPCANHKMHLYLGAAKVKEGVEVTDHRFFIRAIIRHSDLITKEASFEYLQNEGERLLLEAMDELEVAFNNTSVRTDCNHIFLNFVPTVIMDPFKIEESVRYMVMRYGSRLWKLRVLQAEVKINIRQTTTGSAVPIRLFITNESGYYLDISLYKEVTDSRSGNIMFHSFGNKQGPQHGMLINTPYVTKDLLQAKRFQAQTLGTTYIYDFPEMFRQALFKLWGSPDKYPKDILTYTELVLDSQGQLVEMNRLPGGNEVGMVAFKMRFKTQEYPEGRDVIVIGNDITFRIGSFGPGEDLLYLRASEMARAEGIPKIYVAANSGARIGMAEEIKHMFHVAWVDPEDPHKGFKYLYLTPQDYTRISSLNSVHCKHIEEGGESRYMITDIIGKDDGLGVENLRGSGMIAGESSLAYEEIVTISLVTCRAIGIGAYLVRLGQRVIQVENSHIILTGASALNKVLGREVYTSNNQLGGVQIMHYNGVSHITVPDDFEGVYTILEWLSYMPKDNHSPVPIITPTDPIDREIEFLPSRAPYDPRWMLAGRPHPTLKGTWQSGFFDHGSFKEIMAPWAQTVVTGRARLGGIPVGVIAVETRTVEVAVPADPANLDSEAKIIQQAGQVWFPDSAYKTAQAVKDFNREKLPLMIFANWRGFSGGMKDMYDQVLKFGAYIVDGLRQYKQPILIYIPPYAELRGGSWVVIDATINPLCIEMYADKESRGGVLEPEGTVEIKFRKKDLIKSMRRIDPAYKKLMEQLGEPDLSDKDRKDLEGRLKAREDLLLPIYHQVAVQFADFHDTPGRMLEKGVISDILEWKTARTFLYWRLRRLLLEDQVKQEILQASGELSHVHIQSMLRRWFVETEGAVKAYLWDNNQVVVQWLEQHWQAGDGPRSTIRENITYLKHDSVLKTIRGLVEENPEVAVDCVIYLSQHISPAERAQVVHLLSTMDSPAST

Test [2] has as its target Human recombinant Acetyl-CoA Carboxylase 1 (ACC1) (Homo sapiens, UniProt Q13085). The test is described as follows: Assay Y: ACC1 inhibition, inorganic phosphate (Malachite Green). The conditions noted are these: Assay Y: room temperature, 3 hr, 15 min preincubation. The format is biochemical. The method, boiled down:
as §1

For the molecule `CC(C)(C)OC(=O)NC[C@H]1CC[C@H](CNC(=O)c2cccc3ccccc23)CC1` [Example 96, tert-Butyl ({trans-4-[(1-naphthoylamino)methyl]cyclohexyl}methyl)carbamate], the IC50 in test [1] was 3640 nM; in test [2] it was greater than 20000 nM.
Taken in the same sequence, the figures for `CC(C)(C)NC(=O)NC[C@H]1CC[C@H](CNC(=O)c2cc(-c3ccncc3)nc3ccccc23)CC1` [Example 97, N-[(trans-4-{[(tert-Butylcarbamoyl)amino]methyl}cyclohexyl)methyl]-2-pyridin-4-ylquinoline-4-carboxamide] were 6140 nM and 18300 nM.
Taken in the same sequence, the figures for `CC(C)(C)OC(=O)NC[C@H]1CC[C@H](CNC(=O)c2cc(-c3cccc(CNS(C)(=O)=O)c3)nc3ccccc23)CC1` [Example 98, tert-Butyl ({trans-4-[({[2-(3-{[(methylsulfonyl)amino]methyl}phenyl)quinolin-4-yl]carbonyl}amino)methyl]cyclohexyl}methyl)carbamate] were 70 nM and 1370 nM.
For `CC(C)(C)OC(=O)NC[C@H]1CC[C@H](CNC(=O)c2cc(-c3cccc(CNC(N)=O)c3)nc3ccccc23)CC1` [Example 99, tert-Butyl {[trans-4-({[(2-{3-[(carbamoylamino)methyl]phenyl}quinolin-4-yl)-carbonyl]amino}methyl)cyclohexyl]methyl}carbamate], in that order: 100 nM and 780 nM.
`CC(=O)NCc1cccc(-c2cc(C(=O)NC[C@H]3CC[C@H](CNC(=O)OC(C)(C)C)CC3)c3ccccc3n2)c1` [Example 100, tert-Butyl [(trans-4-{[({2-[3-(acetamidomethyl)phenyl]quinolin-4-yl}carbonyl)amino]-methyl}cyclohexyl)methyl]carbamate]: the results for the IC50 in test [1] and in test [2] were 110 nM and 590 nM, respectively.
For the molecule `COC(=O)NCc1cccc(-c2cc(C(=O)NC[C@H]3CC[C@H](CNC(=O)OC(C)(C)C)CC3)c3ccccc3n2)c1` [Example 101, Methyl [3-(4-{[(trans-4-{[(tert-butoxycarbonyl)amino]methyl}cyclohexyl)methyl]-carbamoyl}quinolin-2-yl)benzyl]carbamate], the IC50 in test [1] was determined as 150 nM; in test [2] it was 2210 nM.
For `CC(C)(C)OC(=O)NC[C@H]1CC[C@H](CNC(=O)c2cc(-c3ccc(CCN)cc3)nc3ccccc23)CC1` [Example 102, tert-Butyl [(trans-4-{[({2-[4-(2-aminoethyl)phenyl]quinolin-4-yl}carbonyl)amino]-methyl}cyclohexyl)methyl]carbamate], the IC50 worked out at 20 nM in test [1] and 170 nM in test [2].
Taken in the same sequence, the figures for `CC(=O)NCc1ccc(-c2cc(C(=O)NC[C@H]3CC[C@H](CNC(=O)OC(C)(C)C)CC3)c3ccccc3n2)cc1` [Example 103, tert-Butyl [(trans-4-{[({2-[4-(acetamidomethyl)phenyl]quinolin-4-yl}carbonyl)-amino]methyl}cyclohexyl)methyl]carbamate] were 40 nM and 200 nM.
Taken in the same sequence, the figures for `COC(=O)NCc1ccc(-c2cc(C(=O)NC[C@H]3CC[C@H](CNC(=O)OC(C)(C)C)CC3)c3ccccc3n2)cc1` [Example 104, Methyl [4-(4-{[(trans-4-{[(tert-butoxycarbonyl)amino]methyl}cyclohexyl)methyl]-carbamoyl}quinolin-2-yl)benzyl]carbamate] were 110 nM and 1600 nM.
Taken in the same sequence, the figures for `CC(C)(C)OC(=O)NC[C@H]1CC[C@H](CNC(=O)c2cc(-c3ccc(CNC(N)=O)cc3)nc3ccccc23)CC1` [Example 105, tert-Butyl {[trans-4-({[(2-{4-[(carbamoylamino)methyl]phenyl}quinolin-4-yl)carbonyl]amino}methyl)cyclohexyl]methyl}carbamate] were 30 nM and 110 nM.
As for `CC(C)(C)OC(=O)NC[C@H]1CC[C@H](CNC(=O)c2cc(-c3ccc(CNS(C)(=O)=O)cc3)nc3ccccc23)CC1` [Example 106, tert-Butyl ({trans-4-[({[2-(4-{[(methylsulfonyl)amino]methyl}phenyl)quinolin-4-yl]carbonyl}amino)methyl]cyclohexyl}methyl)carbamate], the IC50 in test [1] stood at 70 nM; in test [2], 430 nM.
For `CC(C)(C)OC(=O)NC[C@H]1CC[C@H](CNC(=O)c2cc(-c3ccc(CC(=O)O)cc3)nc3ccccc23)CC1` [Example 107, [4-(4-{[(trans-4-{[(tert-Butoxycarbonyl)amino]methyl}cyclohexyl)methyl]-carbamoyl}quinolin-2-yl)phenyl]acetic Acid], in that order: 210 nM and 2620 nM.
For `CC(C)(C)OC(=O)NC[C@H]1CC[C@H](CNC(=O)c2cc(-c3cccc(C(=O)O)c3)nc3ccccc23)CC1` [Example 108, 3-(4-{[(trans-4-{[(tert-Butoxycarbonyl)amino]methyl}cyclohexyl)methyl]-carbamoyl}quinolin-2-yl)benzoic Acid], in that order: 450 nM and 7870 nM.
Taken in the same sequence, the figures for `CN1CCN(c2ccc(-c3cc(C(=O)NC[C@H]4CC[C@H](CNC(=O)OC5CCOCC5)CC4)c4ccccc4n3)cn2)CC1` [Example 109, Tetrahydro-2H-pyran-4-yl [(trans-4-{[({2-[6-(4-methylpiperazin-1-yl)pyridin-3-yl]quinolin-4-yl}carbonyl)amino]methyl}cyclohexyl)methyl]carbamate] were 210 nM and 1710 nM.
As for `CN1CCC(OC(=O)NC[C@H]2CC[C@H](CNC(=O)c3cc(-c4ccc(N5CCN(C)CC5)nc4)nc4ccccc34)CC2)CC1` [Example 110, 1-Methylpiperidin-4-yl-[(trans-4-{[({2-[6-(4-methylpiperazin-1-yl)pyridin-3-yl]quinolin-4-yl}carbonyl)amino]methyl}cyclohexyl)methyl]carbamate], the IC50 in test [1] is 4370 nM; in test [2], greater than 20000 nM.
For `CN1CCN(c2ccc(-c3cc(C(=O)NC[C@H]4CC[C@H](CNC(=O)O[C@H]5CCOC5)CC4)c4ccccc4n3)cn2)CC1` [Example 116, (3S)-Tetrahydrofuran-3-yl-[(trans-4-{[({2-[6-(4-methylpiperazin-1-yl)pyridin-3-yl]quinolin-4-yl}carbonyl)amino]methyl}cyclohexyl)methyl]carbamate], in that order: 180 nM and 1260 nM.
For `CN1CCN(c2ccc(-c3cc(C(=O)NC[C@H]4CC[C@H](CNC(=O)OCC(F)F)CC4)c4ccccc4n3)cn2)CC1` [Example 117, 2,2-Difluoroethyl[(trans-4-{[({2-[6-(4-methylpiperazin-1-yl)pyridin-3-yl]quinolin-4-yl}carbonyl)amino]methyl}cyclohexyl)methyl]carbamate], the IC50 in test [1] is 410 nM; in test [2], 960 nM.
As for `CN1CCN(c2ccc(-c3cc(C(=O)NC[C@H]4CC[C@H](CNC(=O)OCCF)CC4)c4ccccc4n3)cn2)CC1` [Example 118, 2-Fluoroethyl[(trans-4-{[({2-[6-(4-methylpiperazin-1-yl)pyridin-3-yl]quinolin-4-yl}carbonyl)amino]methyl}cyclohexyl)methyl]carbamate], the results for the IC50 in test [1] and in test [2] were 650 nM and 1640 nM, respectively.
For `CCOC(=O)NC[C@H]1CC[C@H](CNC(=O)c2cc(-c3ccc(N4CCN(C)CC4)nc3)nc3ccccc23)CC1` [Example 119, Ethyl[(trans-4-{[({2-[6-(4-methylpiperazin-1-yl)pyridin-3-yl]quinolin-4-yl}carbonyl)amino]methyl}cyclohexyl)methyl]carbamate], in that order: 720 nM and 2260 nM.
For `COCCOC(=O)NC[C@H]1CC[C@H](CNC(=O)c2cc(-c3ccc(N4CCN(C)CC4)nc3)nc3ccccc23)CC1` [Example 120, 2-Methoxyethyl[(trans-4-{[({2-[6-(4-methylpiperazin-1-yl)pyridin-3-yl]quinolin-4-yl}carbonyl)amino]methyl}cyclohexyl)methyl]carbamate], in that order: 1320 nM and 4250 nM.
Taken in the same sequence, the figures for `C[C@@H](CO)OC(=O)NC[C@H]1CC[C@H](CNC(=O)c2cc(-c3ccc(N4CCN(C)CC4)nc3)nc3ccccc23)CC1` [Example 133, (1S)-2-Hydroxy-1-methylethyl [(trans-4-{[({2-[6-(4-methylpiperazin-1-yl)pyridin-3-yl]quinolin-4-yl}carbonyl)amino]methyl}cyclohexyl)methyl]carbamate] were 660 nM and 2490 nM.
`CNS(=O)(=O)c1ccc(-c2cc(C(=O)NC[C@H]3CC[C@H](CNC(=O)OC(C)(C)C)CC3)c3ccccc3n2)cc1` [Example 134, tert-Butyl {[trans-4-({[(2-{4-[(methylamino)sulfonyl]-phenyl}quinolin-4-yl)carbonyl]amino}methyl)cyclohexyl]methyl}-carbamate]: the results for the IC50 in test [1] and in test [2] were 100 nM and 530 nM, respectively.
Taken in the same sequence, the figures for `CC(C)(C)OC(=O)NC[C@H]1CC[C@H](CNC(=O)c2cc(-c3ccc(S(N)(=O)=O)cc3)nc3ccccc23)CC1` [Example 135, tert-Butyl [(trans-4-{[({2-[4-(aminosulfonyl)phenyl]-quinolin-4-yl}carbonyl)amino]-methyl}-cyclohexyl)methyl]-carbamate] were 80 nM and 380 nM.
For `CNS(=O)(=O)c1ccc(-c2cc(C(=O)NC[C@H]3CC[C@H](CNC(=O)OC4CCOCC4)CC3)c3ccccc3n2)cc1` [Example 136, Tetrahydro-2H-pyran-4-yl{[trans-4-({[(2-{4-[(methylamino)sulfonyl]phenyl}quinolin-4-yl)carbonyl]amino}methyl)cyclohexyl]methyl}-carbamate], in that order: 620 nM and 3070 nM.
